From patent publication US20060041962A1, “Genes and uses thereof to modulate secondary metabolite biosynthesis” (priority 2002, published 2006)

Key:
[1] = system: BY-2 reporter cell line (line 7); assay: Nicotine alkaloid content of BY-2 reporter cell line super-transformed with C330; assay type: cell-based, Nicotiana tabacum; details: line 7 + C330 vector, −2,4D + MeJA
Method: In a next step, we evaluated if there was a correlation between the GUS-activity in the BY-2 reporter cell line and nicotine alkaloid accumulation. […] Measurements in tables 6A and 6B were carried out in the presence or absence of synthetic auxins. “−2,4 D” means in the absence of dichlorophenoxy-acetic acid. “NAA” means in the presence of alfa-naphtalene-acetic acid. “DW” means dry weight, “MeJA” is with the addition of the elicitor methyl jasmonate, “DMSO” means with the addition of dimethylsulfoxide instead of MeJA.
(§1) Nicotiana tabacum BY-2 cells were cultured in modified Linsmaier-Skoog (LS) medium (Linsmaier & Skoog, 1965), as described by Nagata & Kumagai (1999). First, the growth curve of BY-2 cell culture was determined (FIG. 2) and the late exponential phase was used in elicitation experiments. Since the ability of high auxin concentration to inhibit the biosynthesis of nicotine is well known (Hibi et al., 1994; Ishikawa, et al., 1994), the six-day-old culture was prior elicitation washed and diluted 10-fold with fresh hormone free medium. After 12 hours, the cells were treated with methyl jasmonate (MeJA). MeJA (cis-form, Duchefa M0918) dissolved in dimethyl sulfoxide (DMSO) and was added to the culture medium at a final concentration of 50 μM. Same amount of DMSO alone served as a control. Samples for cDNA-AFLP analysis were taken at 0, 1, 2, 3, 4, 5, 6, 7, 8, 9, 10, 11, 12, 13, 14, 15, 16, 18, 20, 24, 36, 48, and 98 hours after jasmonate addition or at 0, 2, 4, 6, 8, 10, 12, 14, 16, 24, 36, 48, and 98 hours after DMSO addition, respectively. For alkaloid analysis, the samples were taken at 0, 12, 14, 24, 48 and 98 hours. Three replicate shake flasks pooled together yielded the total culture volume of 75 ml. After filtering (Miracloth) under vacuum the cells were lyophilized. Lyophilized cell samples were extracted for GC-MS analysis by a modified method described by Furuya et al. (1971). Cells were weighed and 25 μg of internal standard (5α-cholestan) was added. The samples were made alkaline with ammonia (10% (v/v), 1 ml) and water (2 ml) was added. Alkaloids were extracted by vortexing with 2 ml of dicloromethane. After 30 min the samples were centrifuged (2000 rpm, 10 min) and the lower organic layer was separated and transferred into glass vials. The samples were concentrated to 50 μl and 3 μl aliquots were injected to GC-MS. In some cases (for derivatization of free fatty acids and more polar compounds) the samples were silylated prior to GC-MS analysis. After evaporation to dryness, 25 μl of dichloromethane was added and silylation was performed by N-methyl-N-(trimethylsilyl)-trifluoro-acetamide (Pierce, Rockford, USA) at 120° C. for 20 min.

NsPMT2 promoter = NsPMT2 promoter EGFP-GUS reporter in transgenic BY-2 cell line 7 (GUS activity); assay type: cell-based, Nicotiana sylvestris
Source text: The PMT gene encodes the enzyme putrescine N-methyltransferase, catalysing the first committed step in the production of nicotinic alkaloids. Transcripts of Nicotiana sp. PMT genes are reported to be up regulated by methyl jasmonate. […] We have applied this knowledge and constructed a new reporter construct, called pHGWFS7-ppmt2, harbouring a EGFP-GUS fusion reporter gene (in Gateway® vector pHGWFS7; Karimi et al., Trends Plant Sci. 2002, 7(5):193-195), driven by the NsPMT2 promoter. To this end, primers were designed for the Adapter attB PCR protocol (InVitroGen) to amplify the NsPMT2 5′flanking region covering nucleotides −1713 to +3 (Table 3).
The pHGWFS7-ppmt2 construct was subsequently introduced in the ternary Agrobacterium tumefaciens transformation system, LBA4404.pBBR1-MCS-5.virGN54D (van der Fits et al., Plant Mol. Biol. 2000, 43(4):495-502), allowing efficient transformation of tobacco BY-2 cell cultures. Different independent transgenic lines were established and the jasmonate inducibility of the promoter in these transgenic BY-2 cells was confirmed (Table 4).
To illustrate the potential of this approach, BY-2-pmt2 cell line 7 was double transformed with the pK7WGD2-C330 construct, harbouring the MJM tag with SEQ ID No 148, an AP2-domain transcription factor encoding gene (also designated as C330 in this application), driven by the constitutive p35S promoter.

tobacco BY-2 cells [2] = assay: cDNA-AFLP transcript profiling of jasmonate-elicited BY-2 cells; assay type: cell-based, Nicotiana tabacum; details: 50 μM methyl jasmonate vs DMSO-treated cells, approximately 20,000 tags analyzed
Method: Total RNA was prepared by LiCl precipitation (Sambrook, 1989). Starting from 5 μg total RNA, first-strand cDNA was synthesized by reverse transcription with a biotinylated oligo-dT25 primer (Genset, Paris, France) and Superscript II (Life Technologies, Gaithersburg, Md.). Second-strand synthesis was performed by strand displacement with Escherichia coli ligase (Life Technologies), DNA polymerase I (USB, Cleveland, Ohio) and RNAse-H (USB).
500 nanograms of double-stranded cDNA was used for AFLP analysis as described (Vos et al., 1995; Bachem et al., 1996) with modifications. The restriction enzymes used were BstYI and MseI (Biolabs) and the digestion was performed in two separate steps. […]
Scanned gel images were quantitatively analyzed using the AFLP QuantarPro image analysis software (Keygene N. V., Wageningen, N L). This software was designed for accurate lane definition, fragment detection, and quantification of band intensities. All visible AFLP fragments were scored and individual band intensities in each lane were measured. […] The correction factors were calculated based on constant bands throughout the time course. […] A coefficient of variation (CV) was calculated by dividing […]. […]

tobacco BY-2 cells [3] = assay: Nicotine alkaloid accumulation in methyl jasmonate elicited BY-2 cells (GC-MS); assay type: cell-based, Nicotiana tabacum
Method: as §1

For CC/C=C\CC1C(=O)CCC1CC(=O)OC (centres unmarked) [MeJA, methyl jasmonate], the Anatabine ([1]; 0 h) was 0.038 mg/g DW, the Nicotine ([1]; 0 h) was 0.008 mg/g DW and the Anabasine ([1]; 24 h) was 0.099 Mg/g DW. The Anatabine ([1]; 24 h) was 2.065 mg/g DW, the Nicotine ([1]; 24 h) was 0.271 mg/g DW and the Anabasine ([1]; 48 h) was 0.297 Mg/g DW. It also gave an Anatabine ([1]; 48 h) of 3.541 mg/g DW, a Nicotine ([1]; 48 h) of 0.283 mg/g DW and a GUS activity (NsPMT2 promoter; BY-2 cell line 7, +MeJA, 0 h (Table 4)) of 0.8 ± 1.0 units/mg protein/minute. For the same compound, the GUS activity (NsPMT2 promoter; BY-2 cell line 7, +MeJA, 4 h (Table 4)) was 2.0 ± 0.3 units/mg protein/minute, the GUS activity (NsPMT2 promoter; BY-2 cell line 7, +MeJA, 8 h (Table 4)) was 6.4 ± 0.3 units/mg protein/minute and the GUS activity (NsPMT2 promoter; BY-2 cell line 7, +MeJA, 14 h (Table 4)) was 29.1 ± 1.9 units/mg protein/minute. The GUS activity (NsPMT2 promoter; BY-2 cell line 7, +MeJA, 24 h (Table 4)) was 92.2 ± 6.4 units/mg protein/minute, the GUS activity (NsPMT2 promoter; BY-2 line 7, +MeJA, 0 h (Table 5)) was 0.0 ± 0.0 units/mg protein/minute and the GUS activity (NsPMT2 promoter; BY-2 line 7, +MeJA, 24 h (Table 5)) was 399.0 ± 56.4 units/mg protein/minute. For the same compound, the GUS activity (NsPMT2 promoter; BY-2 line 7, +MeJA, 48 h (Table 5)) was 663.0 ± 33.6 units/mg protein/minute, the GUS activity (NsPMT2 promoter; BY-2 line 7-C330, +MeJA, 0 h) was 1.0 ± 0.1 units/mg protein/minute and the GUS activity (NsPMT2 promoter; BY-2 line 7-C330, +MeJA, 24 h) was 276.7 ± 55.9 units/mg protein/minute. The GUS activity (NsPMT2 promoter; BY-2 line 7-C330, +MeJA, 48 h) was 347.8 ± 2.0 units/mg protein/minute, the differential transcript tags (tobacco BY-2 cells [2]) was 591 and the “nicotine, anabasine, anatalline and anatabine content” value (tobacco BY-2 cells [3]; BY-2 cells elicited vs control samples) was “marked increase”. The “highest concentration of anatabine” value (tobacco BY-2 cells [3]; BY-2 cells, 50 μM MeJA) was 800 µg/g (d.w.), the “maximum concentration of nicotine relative to anatabine (dry weight basis)” value (tobacco BY-2 cells [3]; BY-2 cells, 50 μM MeJA) was 4% and the “start of anatabine accumulation after elicitation” value (tobacco BY-2 cells [3]; BY-2 cells, 50 μM MeJA) was 24 h. The “start of nicotine accumulation after elicitation” value (tobacco BY-2 cells [3]; BY-2 cells, 50 μM MeJA) was 14 h and the “time after which anabasine and two anatalline isomers increased” value (tobacco BY-2 cells [3]; BY-2 cells, 50 μM MeJA) was 48 h.
